PubChem BioAssay (NCI)
Where “and” joins values, the source holds several entries; their conditions need not be identical. Identical values can stand only once.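 Tested at 5 concentrations; 48 h exposure; 96-well plates; endpoints linearly interpolated, else capped at highest concentration. GI50: concentration for 50% inhibition of growth. Definition used: TGI = concentration required for complete inhibition of growth.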

What was measured:
Test in all cases: inhibition of tumour cell growth, NCI panel, 48 h
786-0 renal = system: 786-0 renal
A498 renal = system: A498 renal
A549 NSCLC = system: A549 NSCLC
ACHN renal = system: ACHN renal
BT-549 breast = system: BT-549 breast
CAKI-1 renal = system: CAKI-1 renal
CCRF-CEM leukemia = system: CCRF-CEM leukemia
COLO 205 colon = system: COLO 205 colon
DU-145 prostate = system: DU-145 prostate
EKVX NSCLC = system: EKVX NSCLC
HCC-2998 colon = system: HCC-2998 colon
HCT-116 colon = system: HCT-116 colon
HCT-15 colon = system: HCT-15 colon
HL-60(TB) leukemia = system: HL-60(TB) leukemia
HOP-62 NSCLC = system: HOP-62 NSCLC
HOP-92 NSCLC = system: HOP-92 NSCLC
HS 578T breast = system: HS 578T breast
HT29 colon = system: HT29 colon
IGROV1 ovarian = system: IGROV1 ovarian
K-562 leukemia = system: K-562 leukemia
KM12 colon = system: KM12 colon
LOX IMVI melanoma = system: LOX IMVI melanoma
M14 melanoma = system: M14 melanoma
MALME-3M melanoma = system: MALME-3M melanoma
MCF7 breast = system: MCF7 breast
MDA-MB-231 breast = system: MDA-MB-231 breast
MDA-MB-435 = system: MDA-MB-435
MOLT-4 leukemia = system: MOLT-4 leukemia
NCI-H226 lung = system: NCI-H226 lung
NCI-H23 lung = system: NCI-H23 lung
NCI-H460 lung = system: NCI-H460 lung
NCI-H522 lung = system: NCI-H522 lung
NCI/ADR-RES ovarian = system: NCI/ADR-RES ovarian
OVCAR-3 ovarian = system: OVCAR-3 ovarian
OVCAR-4 ovarian = system: OVCAR-4 ovarian
OVCAR-5 ovarian = system: OVCAR-5 ovarian
OVCAR-8 ovarian = system: OVCAR-8 ovarian
PC-3 prostate = system: PC-3 prostate
RPMI-8226 leukemia = system: RPMI-8226 leukemia
RXF 393 renal = system: RXF 393 renal
SF-268 CNS = system: SF-268 CNS
SF-295 CNS = system: SF-295 CNS
SF-539 CNS = system: SF-539 CNS
SK-MEL-2 melanoma = system: SK-MEL-2 melanoma
SK-MEL-28 melanoma = system: SK-MEL-28 melanoma
SK-MEL-5 melanoma = system: SK-MEL-5 melanoma
SK-OV-3 ovarian = system: SK-OV-3 ovarian
SN12C renal = system: SN12C renal
SNB-19 CNS = system: SNB-19 CNS
SNB-75 CNS = system: SNB-75 CNS
SR leukemia = system: SR leukemia
SW-620 colon = system: SW-620 colon
T-47D breast = system: T-47D breast
TK-10 renal = system: TK-10 renal
U251 CNS = system: U251 CNS
UACC-257 melanoma = system: UACC-257 melanoma
UACC-62 melanoma = system: UACC-62 melanoma
UO-31 renal = system: UO-31 renal

CC(C)C[C@@H](NC(=O)[C@@H](Cc1ccccc1)NC(=O)c1cnccn1)B1Oc2ccc(C[C@H](NC(=O)[C@H](Cc3ccc4c(c3)OB([C@@H](CC(C)C)NC(=O)[C@@H](Cc3ccccc3)NC(=O)c3cnccn3)O4)NC(=O)[C@@H](N)CC3CCC4OB([C@@H](CC(C)C)NC(=O)[C@@H](CC5CCCCC5)NC(=O)C5CNCCN5)OC4C3)C(=O)NCCCC[C@@H]3NC(=O)[C@@H](Cc4ccccc4)NC(=O)[C@H](CC(=O)O)NC(=O)CNC(=O)[C@H](CCCNC(=N)N)NC3=O)cc2O1 (stereo not given in full)
GI50 (786-0 renal): 3.68 nM and 2.5 nM | GI50 (A498 renal): 3.36 nM and 2.5 nM | TGI (A498 renal): 10.7 nM and 5.35 nM | GI50 (A549 NSCLC): 7.23 nM and 8.38 nM | TGI (A549 NSCLC): 321 nM | GI50 (ACHN renal): 3.95 nM and 2.5 nM | TGI (ACHN renal): 257 nM and 283 nM | GI50 (BT-549 breast): 2.58 nM and 2.5 nM | TGI (BT-549 breast): 8.12 nM and 3.01 nM | GI50 (CAKI-1 renal): 3.55 nM and 7.13 nM | TGI (CAKI-1 renal): 22.2 nM and 38.3 nM | GI50 (CCRF-CEM leukemia): 3.82 nM and 2.5 nM | TGI (CCRF-CEM leukemia): > 25000 nM | GI50 (COLO 205 colon): 5.51 nM and 5.55 nM | TGI (COLO 205 colon): 293 nM and 86.4 nM | GI50 (DU-145 prostate): 5.74 nM and 2.5 nM | TGI (DU-145 prostate): 2980 nM | GI50 (EKVX NSCLC): 10.6 nM and 7.75 nM | TGI (EKVX NSCLC): 527 nM and 304 nM | GI50 (HCC-2998 colon): 6.49 nM and 3.89 nM | TGI (HCC-2998 colon): 19.8 nM and 7.63 nM | GI50 (HCT-116 colon): 2.73 nM and 2.5 nM | TGI (HCT-116 colon): 16.4 nM and 2.9 nM | GI50 (HCT-15 colon): 4.85 nM and 3.49 nM | TGI (HCT-15 colon): 41 nM and 40.9 nM | GI50 (HL-60(TB) leukemia): 4.42 nM | TGI (HL-60(TB) leukemia): 853 nM | GI50 (HOP-62 NSCLC): 7.45 nM and 6.55 nM | TGI (HOP-62 NSCLC): 46.3 nM and 17.7 nM | GI50 (HOP-92 NSCLC): 3.69 nM and 2.5 nM | TGI (HOP-92 NSCLC): 26.7 nM and 9.53 nM | GI50 (HS 578T breast): 4.19 nM and 2.5 nM | TGI (HS 578T breast): > 25000 nM | GI50 (HT29 colon): 3.73 nM and 2.5 nM | GI50 (IGROV1 ovarian): 21.7 nM and 2.5 nM | TGI (IGROV1 ovarian): 250 nM and 917 nM | GI50 (K-562 leukemia): 0.713 nM and 2.5 nM | TGI (K-562 leukemia): > 25000 nM | GI50 (KM12 colon): 3.94 nM and 2.95 nM | TGI (KM12 colon): 15.2 nM and 8.16 nM | GI50 (LOX IMVI melanoma): 2.41 nM and < 2.5 nM | TGI (LOX IMVI melanoma): 6.6 nM and < 2.5 nM | GI50 (M14 melanoma): 3.22 nM and 2.5 nM | GI50 (MALME-3M melanoma): 3.23 nM and 2.5 nM | TGI (MALME-3M melanoma): 105 nM and 20.6 nM | GI50 (MCF7 breast): 3.78 nM and 2.5 nM | TGI (MCF7 breast): 439 nM | GI50 (MDA-MB-231 breast): 7.73 nM and 2.5 nM | TGI (MDA-MB-231 breast): 56 nM and 20.5 nM | GI50 (MDA-MB-435): 2.06 nM and < 2.5 nM | TGI (MDA-MB-435): 4.52 nM and < 2.5 nM | GI50 (MOLT-4 leukemia): 3.56 nM and 2.5 nM | TGI (MOLT-4 leukemia): > 25000 nM | GI50 (NCI-H226 lung): 2.29 nM | TGI (NCI-H226 lung): 4.54 nM | GI50 (NCI-H23 lung): 5.68 nM and 2.5 nM | TGI (NCI-H23 lung): 41.2 nM and 10.8 nM | GI50 (NCI-H460 lung): 25.3 nM and 7.96 nM | TGI (NCI-H460 lung): 115 nM and 32.2 nM | GI50 (NCI-H522 lung): 3.33 nM and 2.5 nM | TGI (NCI-H522 lung): 17.9 nM and 3.85 nM | GI50 (NCI/ADR-RES ovarian): 54.8 nM and 17.4 nM | TGI (NCI/ADR-RES ovarian): 669 nM and 148 nM | GI50 (OVCAR-3 ovarian): 2.53 nM and 2.5 nM | TGI (OVCAR-3 ovarian): 6.73 nM and 3.27 nM | GI50 (OVCAR-4 ovarian): 5.05 nM and 2.5 nM | TGI (OVCAR-4 ovarian): 181 nM and 548 nM | GI50 (OVCAR-5 ovarian): 7.84 nM and 3.82 nM | TGI (OVCAR-5 ovarian): 132 nM and 360 nM | GI50 (OVCAR-8 ovarian): 22 nM and 8.17 nM | GI50 (PC-3 prostate): 13.5 nM and 6.32 nM | TGI (PC-3 prostate): 186 nM and 60.4 nM | GI50 (RPMI-8226 leukemia): 4.32 nM and 2.5 nM | TGI (RPMI-8226 leukemia): 243 nM and 109 nM | GI50 (RXF 393 renal): 2.44 nM and < 2.5 nM | TGI (RXF 393 renal): 5.8 nM and < 2.5 nM | GI50 (SF-268 CNS): 4.1 nM and 2.8 nM | TGI (SF-268 CNS): 27.9 nM and 13.6 nM | GI50 (SF-295 CNS): 3.65 nM and 2.5 nM | TGI (SF-295 CNS): 17.2 nM and 7.68 nM | GI50 (SF-539 CNS): 2.51 nM and < 2.5 nM | TGI (SF-539 CNS): 7.22 nM and < 2.5 nM | GI50 (SK-MEL-2 melanoma): 5.45 nM and 2.5 nM | TGI (SK-MEL-2 melanoma): 64.9 nM and 9.2 nM | GI50 (SK-MEL-28 melanoma): 5.63 nM and 2.5 nM | TGI (SK-MEL-28 melanoma): 517 nM and 106 nM | GI50 (SK-MEL-5 melanoma): 3.01 nM and 2.5 nM | TGI (SK-MEL-5 melanoma): 8.71 nM and 4.81 nM | GI50 (SK-OV-3 ovarian): 30.9 nM and 7.54 nM | TGI (SK-OV-3 ovarian): 694 nM | GI50 (SN12C renal): 7.93 nM and 4.85 nM | TGI (SN12C renal): 80.4 nM and 31.9 nM | GI50 (SNB-19 CNS): 13.6 nM and 2.5 nM | TGI (SNB-19 CNS): 4700 nM | GI50 (SNB-75 CNS): 3.92 nM | TGI (SNB-75 CNS): 24.8 nM | GI50 (SR leukemia): 4.1 nM | TGI (SR leukemia): 244 nM | GI50 (SW-620 colon): 4.26 nM and 2.5 nM | TGI (SW-620 colon): 115 nM and 261 nM | GI50 (T-47D breast): 3.88 nM and 2.5 nM | TGI (T-47D breast): 41.1 nM and 11.7 nM | GI50 (TK-10 renal): 3.19 nM and 2.5 nM | GI50 (U251 CNS): 11.7 nM and 4.76 nM | TGI (U251 CNS): 149 nM and 21 nM | GI50 (UACC-257 melanoma): 4.33 nM and 3.35 nM | TGI (UACC-257 melanoma): 49.6 nM and 15.6 nM | GI50 (UACC-62 melanoma): 4.12 nM and 2.5 nM | GI50 (UO-31 renal): 4.28 nM and 2.5 nM | TGI (UO-31 renal): 102 nM and 14.8 nM
